# Assay results published in ChEMBL document CHEMBL1201862, “PubChem BioAssay data set” (2004).
#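 Step 1: Grow cells in 96-well plates. Step 2: Expose to compound for 48 hours at 5 concentrations. Step 3: Interpolate endpoints linearly; if unreached, use highest concentration. At the GI50, growth is halved.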 Active and inactive are the calls of the source. No stated cut-off is given here; in the data, active = GI50 up to about 1.1 µM and inactive = higher.
# Experiments:
# Experiment in all cases: inhibition of tumour cell growth, NCI panel, 48 h
# U-251 = tested on: U-251
# OVCAR-4 = tested on: OVCAR-4
# NCI/ADR-RES = tested on: NCI/ADR-RES
# UO-31 = tested on: UO-31
# EKVX = tested on: EKVX
# MDA-N = tested on: MDA-N
# COLO 205 = tested on: COLO 205
# SNB-75 = tested on: SNB-75
# SK-MEL-2 = tested on: SK-MEL-2
# OVCAR-5 = tested on: OVCAR-5
# OVCAR-8 = tested on: OVCAR-8
# HCT-15 = tested on: HCT-15
# A498 = tested on: A498
# PC-3 = tested on: PC-3
# UACC-62 = tested on: UACC-62
# K562 = tested on: K562
# KM12 = tested on: KM12
# NCI-H460 = tested on: NCI-H460
# M14 = tested on: M14
# BT-549 = tested on: BT-549
# SF-539 = tested on: SF-539
# NCI-H226 = tested on: NCI-H226
# 786-0 = tested on: 786-0
# SK-OV-3 = tested on: SK-OV-3
# SF-268 = tested on: SF-268
# RPMI-8226 = tested on: RPMI-8226
# HL-60 = tested on: HL-60
# NCI-H522 = tested on: NCI-H522
# SNB-19 = tested on: SNB-19
# TK-10 = tested on: TK-10
# CAKI-1 = tested on: CAKI-1
# SK-MEL-28 = tested on: SK-MEL-28
# HT-29 = tested on: HT-29
# MDA-MB-435 = tested on: MDA-MB-435
# DU-145 = tested on: DU-145
# RXF 393 = tested on: RXF 393
# SR = tested on: SR
# Malme-3M = tested on: Malme-3M
# A549 = tested on: A549
# Hs-578T = tested on: Hs-578T
# SW-620 = tested on: SW-620
# LOX IMVI = tested on: LOX IMVI
# SF-295 = tested on: SF-295
# SK-MEL-5 = tested on: SK-MEL-5
# OVCAR-3 = tested on: OVCAR-3
# HCT-116 = tested on: HCT-116
# SN12C = tested on: SN12C
# MCF7 = tested on: MCF7
# MOLT-4 = tested on: MOLT-4
# CCRF-CEM = tested on: CCRF-CEM
# IGROV-1 = tested on: IGROV-1
# HOP-62 = tested on: HOP-62
# UACC-257 = tested on: UACC-257
# T47D = tested on: T47D
# MDA-MB-231 = tested on: MDA-MB-231
# ACHN = tested on: ACHN
# HOP-92 = tested on: HOP-92
# HCC 2998 = tested on: HCC 2998
# NCI-H23 = tested on: NCI-H23
smiles,measurement,setting,value
Cc1c(NC(=S)NN)c(=O)n(-c2ccccc2)n1C,GI50,U-251,> 100 µM (inactive)
same,GI50,OVCAR-4,> 100 µM (inactive)
same,GI50,NCI/ADR-RES,> 100 µM (inactive)
same,GI50,UO-31,> 100 µM (inactive)
same,GI50,EKVX,> 100 µM (inactive)
same,GI50,MDA-N,> 100 µM (inactive)
same,GI50,COLO 205,> 100 µM (inactive)
same,GI50,SNB-75,20 µM (inactive)
same,GI50,SK-MEL-2,> 100 µM (inactive)
same,GI50,OVCAR-5,> 100 µM (inactive)
same,GI50,OVCAR-8,> 100 µM (inactive)
same,GI50,HCT-15,> 100 µM
same,GI50,A498,> 100 µM (inactive)
same,GI50,PC-3,> 100 µM (inactive)
same,GI50,UACC-62,> 100 µM (inactive)
same,GI50,K562,> 100 µM (inactive)
same,GI50,KM12,> 100 µM (inactive)
same,GI50,NCI-H460,> 100 µM (inactive)
same,GI50,M14,> 100 µM (inactive)
same,GI50,BT-549,> 100 µM (inactive)
same,GI50,SF-539,> 100 µM (inactive)
same,GI50,NCI-H226,1.58 µM (inactive)
same,GI50,786-0,> 100 µM (inactive)
same,GI50,SK-OV-3,> 100 µM (inactive)
same,GI50,SF-268,> 100 µM (inactive)
same,GI50,RPMI-8226,> 100 µM (inactive)
same,GI50,HL-60,> 100 µM (inactive)
same,GI50,NCI-H522,0.637 µM (active)
same,GI50,SNB-19,> 100 µM (inactive)
same,GI50,TK-10,> 100 µM (inactive)
same,GI50,CAKI-1,> 100 µM (inactive)
same,GI50,SK-MEL-28,> 100 µM (inactive)
same,GI50,HT-29,> 100 µM (inactive)
same,GI50,MDA-MB-435,> 100 µM (inactive)
same,GI50,DU-145,> 100 µM (inactive)
same,GI50,RXF 393,> 100 µM (inactive)
same,GI50,SR,> 100 µM (inactive)
same,GI50,Malme-3M,32.3 µM (inactive)
same,GI50,A549,> 100 µM (inactive)
same,GI50,Hs-578T,93.8 µM (inactive)
same,GI50,SW-620,> 100 µM (inactive)
same,GI50,LOX IMVI,> 100 µM (inactive)
same,GI50,SF-295,> 100 µM (inactive)
same,GI50,SK-MEL-5,> 100 µM (inactive)
same,GI50,OVCAR-3,> 100 µM (inactive)
same,GI50,HCT-116,> 100 µM (inactive)
same,GI50,SN12C,> 100 µM (inactive)
same,GI50,MCF7,> 100 µM (inactive)
same,GI50,MOLT-4,> 100 µM (inactive)
same,GI50,CCRF-CEM,> 100 µM (inactive)
same,GI50,IGROV-1,> 100 µM (inactive)
same,GI50,HOP-62,> 100 µM (inactive)
same,GI50,UACC-257,> 100 µM (inactive)
same,GI50,T47D,> 100 µM (inactive)
same,GI50,MDA-MB-231,0.0796 µM (active)
O=c1[nH]c(Nc2ccc(Br)c(C(F)(F)F)c2)nc2[nH]cnc12,GI50,U-251,36.1 µM (inactive)
same,GI50,OVCAR-4,47.1 µM (inactive)
same,GI50,NCI/ADR-RES,> 100 µM (inactive)
same,GI50,UO-31,43.9 µM (inactive)
same,GI50,EKVX,80.2 µM (inactive)
same,GI50,ACHN,43.4 µM (inactive)
same,GI50,MDA-N,34.4 µM (inactive)
same,GI50,COLO 205,20.8 µM (inactive)
same,GI50,SNB-75,25.6 µM (inactive)
same,GI50,SK-MEL-2,20.2 µM (inactive)
same,GI50,OVCAR-5,32.3 µM (inactive)
same,GI50,OVCAR-8,42.9 µM (inactive)
same,GI50,HCT-15,76 µM
same,GI50,HOP-92,26.4 µM (inactive)
same,GI50,A498,33.4 µM (inactive)
same,GI50,PC-3,37.7 µM (inactive)
same,GI50,HCC 2998,17.9 µM (inactive)
same,GI50,UACC-62,23.8 µM (inactive)
same,GI50,KM12,29 µM (inactive)
same,GI50,NCI-H460,45.2 µM (inactive)
same,GI50,M14,30.5 µM (inactive)
same,GI50,BT-549,62.7 µM (inactive)
same,GI50,SF-539,34.5 µM (inactive)
same,GI50,NCI-H226,47.5 µM (inactive)
same,GI50,786-0,40.1 µM (inactive)
same,GI50,SK-OV-3,45.1 µM (inactive)
same,GI50,SF-268,28.5 µM (inactive)
same,GI50,RPMI-8226,47.3 µM (inactive)
same,GI50,HL-60,26 µM (inactive)
same,GI50,NCI-H522,18.5 µM (inactive)
same,GI50,SNB-19,39.6 µM (inactive)
same,GI50,NCI-H23,38.5 µM (inactive)
same,GI50,TK-10,83.9 µM (inactive)
same,GI50,CAKI-1,50 µM (inactive)
same,GI50,SK-MEL-28,36.6 µM (inactive)
same,GI50,HT-29,27.6 µM (inactive)
same,GI50,MDA-MB-435,30.7 µM (inactive)
same,GI50,DU-145,55 µM (inactive)
same,GI50,SR,37.1 µM (inactive)
same,GI50,Malme-3M,38.8 µM (inactive)
same,GI50,A549,72.1 µM (inactive)
same,GI50,Hs-578T,13.1 µM (inactive)
same,GI50,SW-620,57.9 µM (inactive)
same,GI50,LOX IMVI,39.1 µM (inactive)
same,GI50,SF-295,54.1 µM (inactive)
same,GI50,SK-MEL-5,29.9 µM (inactive)
same,GI50,OVCAR-3,31.8 µM (inactive)
same,GI50,HCT-116,48.4 µM (inactive)
same,GI50,SN12C,43.3 µM (inactive)
same,GI50,MCF7,51.5 µM (inactive)
same,GI50,MOLT-4,32 µM (inactive)
same,GI50,CCRF-CEM,43.8 µM (inactive)
same,GI50,IGROV-1,40.4 µM (inactive)
same,GI50,HOP-62,48.8 µM (inactive)
same,GI50,UACC-257,82 µM (inactive)
same,GI50,T47D,32.7 µM (inactive)
same,GI50,MDA-MB-231,63.8 µM (inactive)
